20 compounds from patent US10189840B2, “Substituted tricyclic heterocyclic compounds” (BRISTOL-MYERS SQUIBB COMPANY, priority 2015, dated 2019) can be followed below.

By pIC50 is commonly meant −log10 of the IC50, conventionally taken in molar units. Low values mean a large IC50, high ones a small IC50.

The structures appear in SMILES notation. pIC50: −log10 of the molar value.

TNFα, sequence (P01375 77-233): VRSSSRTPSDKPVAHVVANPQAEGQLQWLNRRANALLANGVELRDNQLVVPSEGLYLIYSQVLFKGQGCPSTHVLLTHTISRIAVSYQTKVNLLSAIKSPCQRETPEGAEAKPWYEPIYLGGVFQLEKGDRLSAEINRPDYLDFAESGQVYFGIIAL

The test addresses TNFα (Homo sapiens (Human), UniProt P01375). Kind of test: TNF induced HEK-Blue assay. The following applies: TNFα 0.5 ng/ml; HEK-Blue-CD40L cells, NF-κB-driven secreted alkaline phosphatase reporter; 18 h. The class given is cell-based. Here is the method: Test compounds serially diluted in DMSO were plated in an assay plate (Labcyte, Cat. #LP-0200) at final concentrations ranging from 0.004 μM to 25 μM. TNFα (final concentration 0.5 ng/ml) or CD40L (final concentration 30 ng/ml) in assay buffer [DMEM, 4.5 g/l glucose (Gibco, Cat. 21063-029), 10% FBS (Sigma, F4135), 1% Penicillin-Streptomycin (Gibco, Cat. 15140-122), 1% Anti-Anti (Gibco, Cat. 15240-112) and 2 mM L-glutamine (Gibco, Cat. 25030-081)] was then added to the assay plate. After a 30 minute pre-incubation at 37° C. and 5% CO2, HEK-Blue-CD40L cells (InvivoGen, Cat. Code hkb-cd40) containing a NF-κB-driven secreted alkaline phosphatase reporter gene were seeded into the assay plate at a density of 20,000 cells per well. This plate was then incubated for 18 h at 37° C. and 5% CO2. Secreted alkaline phosphatase expression was measured using QUANTI-Blue (InvivoGen, Cat. Code rep-qb1) according to manufacturer's specifications and the assay plate was read on a PerkinElmer Envision at 620 nm.
Inhibition data for the test compound over a range of concentrations was plotted as percentage inhibition of the test compound (100%=maximum inhibition). IC50 values were determined after correcting for background [(sample read−mean of low control)/(mean of high control−mean of low control)] where by the low control is DMSO without stimulation and high control is DMSO with stimulation. The IC50 is defined as the concentration of test compound which produces 50% inhibition and was quantified using the 4 parameter logistic equation to fit the data.
Table 5 lists the IC50 values measured in the TNF induced HEK-Blue assay for Examples 1 to 40 of this invention.
`CC(C)(O)c1ccc(-c2ccc3nc4n(c3n2)C(c2c(F)cccc2C(F)(F)F)CC4F)cc1` (single isomer, unassigned) [Example 23 (e2), 2-(4-(6-fluoro-8-(2-fluoro-6-(trifluoromethyl)phenyl)-7,8-dihydro-6H-pyrrolo[2′,1′:2,3]imidazo[4,5-b]pyridin-2-yl)phenyl)propan-2-ol] had a pIC50 of 5.00 to 6.00.
As to `CC(C)(O)c1ccc(-c2ccc3nc4n(c3n2)C(c2cc(F)ccc2C(F)(F)F)CC4F)cc1` (single isomer, unassigned) [Example 24 (e1), 2-(4-(6-fluoro-8-(5-fluoro-2-(trifluoromethyl)phenyl)-7,8-dihydro-6H-yrrolo[2′,1′:2,3]imidazo[4,5-b]pyridin-2-yl)phenyl)propan-2-ol], the negative-log IC50 (pIC50) is 5.00 to 6.00.
In the case of `CC(C)(O)c1ccc(-c2ccc3nc4n(c3n2)C(c2cc(F)ccc2C(F)(F)F)CC4F)cc1` (single isomer, unassigned) [Example 24 (e2), 2-(4-(6-fluoro-8-(5-fluoro-2-(trifluoromethyl)phenyl)-7,8-dihydro-6H-yrrolo[2′,1′:2,3]imidazo[4,5-b]pyridin-2-yl)phenyl)propan-2-ol], the pIC50 was 5.00 to 6.00.
To `CC(C)(O)c1ccc(-c2ccc3nc4n(c3n2)C(c2ccccc2C(F)(F)F)CC4)cc1` (single isomer, unassigned) [Example 25 (e1), 2-(4-(8-(2-(Trifluoromethyl)phenyl)-7,8-dihydro-6H-pyrrolo[2′,1′:2,3]imidazo[4,5-b]pyridin-2-yl)phenyl)propan-2-ol] belongs > 6.00; to `CC(C)(O)c1ccc(-c2ccc3nc4n(c3n2)C(c2ccccc2C(F)(F)F)CC4)cc1` (single isomer, unassigned) [Example 25 (e2), 2-(4-(8-(2-(Trifluoromethyl)phenyl)-7,8-dihydro-6H-pyrrolo[2′,1′:2,3]imidazo[4,5-b]pyridin-2-yl)phenyl)propan-2-ol], > 6.00; to `CC(C)(O)c1ccc(-c2ccc3nc4n(c3n2)C(c2ccccc2OC(F)F)CC4)cc1` (single isomer, unassigned) [Example 26 (e1), 2-(4-(8-(2-(difluoromethoxy)phenyl)-7,8-dihydro-6H-pyrrolo[2′,1′:2,3]imidazo[4,5-b]pyridin-2-yl)phenyl)propan-2-ol], > 6.00.
Then `CC(C)(O)c1ccc(-c2ccc3nc4n(c3n2)C(c2ccccc2OC(F)F)CC4)cc1` (single isomer, unassigned) [Example 26 (e2), 2-(4-(8-(2-(difluoromethoxy)phenyl)-7,8-dihydro-6H-pyrrolo[2′,1′:2,3]imidazo[4,5-b]pyridin-2-yl)phenyl)propan-2-ol], with 4.60 to 5.00; and `CC(C)(O)c1ccc(-c2ccc3nc4n(c3n2)C(c2c(F)cccc2C(F)(F)F)CC4)cc1` (single isomer, unassigned) [Example 32 (e1), 2-(4-(8-(2-fluoro-6-(trifluoromethyl)phenyl)-7,8-dihydro-6H-pyrrolo[2′,1′:2,3]imidazo[4,5-b]pyridin-2-yl)phenyl)propan-2-ol], with > 6.00; and `CC(C)(O)c1ccc(-c2ccc3nc4n(c3n2)C(c2ccccc2C2CC2)CC4)cc1` (single isomer, unassigned) [Example 33 (e1), 2-(4-(8-(2-cyclopropylphenyl)-7,8-dihydro-6H-pyrrolo[2′,1′:2,3]imidazo[4,5-b]pyridin-2-yl)phenyl)propan-2-ol], with > 6.00.
To `CC(C)(O)c1ccc(-c2ccc3nc4n(c3n2)C(c2ccccc2C2CC2)CC4)cc1` (single isomer, unassigned) [Example 33 (e2), 2-(4-(8-(2-cyclopropylphenyl)-7,8-dihydro-6H-pyrrolo[2′,1′:2,3]imidazo[4,5-b]pyridin-2-yl)phenyl)propan-2-ol] belongs 5.00 to 6.00; to `CC(C)(O)c1ccc(-c2ccc3nc4n(c3n2)C(c2cc(F)ccc2C(F)(F)F)CC4)cc1` (single isomer, unassigned) [Example 34 (e1), 2-(4-(8-(5-fluoro-2-(trifluoromethyl)phenyl)-7,8-dihydro-6H-pyrrolo[2′,1′:2,3]imidazo[4,5-b]pyridin-2-yl)phenyl)propan-2-ol], > 6.00.
For `CC(C)(O)c1ccc(-c2ccc3nc4n(c3n2)C(c2cc(F)ccc2C(F)(F)F)CC4)cc1` (single isomer, unassigned) [Example 34 (e2), 2-(4-(8-(5-fluoro-2-(trifluoromethyl)phenyl)-7,8-dihydro-6H-pyrrolo[2′,1′:2,3]imidazo[4,5-b]pyridin-2-yl)phenyl)propan-2-ol], the pIC50 is 5.00 to 6.00.
Compound `CC(C)(O)c1ccc(-c2ccc3nc4n(c3n2)C(c2c(F)cccc2C(F)(F)F)CC4O)cc1` (centres unmarked) [Example 3 (e4), 8-(2-fluoro-6-(trifluoromethyl)phenyl)-2-(4-(2-hydroxypropan-2-yl)phenyl)-7,8-dihydro-6H-pyrrolo[2′,1′:2,3]imidazo[4,5-b]pyridin-6-ol] gave a pIC50 of 5.00 to 6.00.
Then `Cc1ccc(C)c(C2CC(O)c3nc4ccc(-c5ccc(C(C)(C)O)cc5)nc4n32)c1` (centres unmarked) [Example 4 (DM), 8-(2,5-dimethylphenyl)-2-(4-(2-hydroxypropan-2-yl)phenyl)-7,8-dihydro-6H-pyrrolo[2′,1′:2,3]imidazo[4,5-b]pyridin-6-ol], with > 6.00.
To `Cc1ccc(C)c(C2CC(O)c3nc4ccc(-c5cnc(C(C)(C)O)nc5)nc4n32)c1` (centres unmarked) [Example 5 (DM), 8-(2,5-dimethylphenyl)-2-(2-(2-hydroxypropan-2-yl)pyrimidin-5-yl)-7,8-dihydro-6H-pyrrolo[2′,1′:2,3]imidazo[4,5-b]pyridin-6-ol] belongs > 6.00.
Then `Cc1ccc(C)c(C2CC(O)c3nc4ccc(-c5cnc(N6CCOCC6)nc5)nc4n32)c1` (centres unmarked) [Example 6 (DM), 8-(2,5-dimethylphenyl)-2-(2-morpholinopyrimidin-5-yl)-7,8-dihydro-6H-pyrrolo[2′,1′:2,3]imidazo[4,5-b]pyridin-6-ol], with > 6.00; and `Cc1ccc(C(F)(F)F)cc1C1CC(O)c2nc3ccc(-c4ccc(C(C)(C)O)cc4)nc3n21` (centres unmarked) [Example 7 (DM), 2-(4-(2-hydroxypropan-2-yl)phenyl)-8-(2-methyl-5-(trifluoromethyl)phenyl)-7,8-dihydro-6H-pyrrolo[2′,1′:2,3]imidazo[4,5-b]pyridin-6-ol], with 5.00 to 6.00.
As for `CC(C)(O)c1ccc(-c2ccc3nc4n(c3n2)C(c2cc(C(F)(F)F)ccc2C(F)(F)F)CC4O)cc1` (centres unmarked) [Example 8 (DM), 8-(2,5-bis(trifluoromethyl)phenyl)-2-(4-(2-hydroxypropan-2-yl)phenyl)-7,8-dihydro-6H-pyrrolo[2′,1′:2,3]imidazo[4,5-b]pyridin-6-ol], the pIC50 is 5.00 to 6.00.
Then `CC(C)(O)c1ccc(-c2ccc3nc4n(c3n2)C(c2ccccc2C2CC2)CC4O)cc1` (centres unmarked) [Example 9 (e1), 8-(2-cyclopropylphenyl)-2-(4-(2-hydroxypropan-2-yl)phenyl)-7,8-dihydro-6H-pyrrolo[2′,1′:2,3]imidazo[4,5-b]pyridin-6-ol], with > 6.00.
To `OC1CC(c2ccccc2OC(F)F)n2c1nc1ccc(-c3cnc(N4CCOCC4)nc3)nc12` (centres unmarked) [Example 10 (DM), 8-(2-(difluoromethoxy)phenyl)-2-(2-morpholinopyrimidin-5-yl)-7,8-dihydro-6H-pyrrolo[2′,1′:2,3]imidazo[4,5-b]pyridin-6-ol] belongs > 6.00.
